Experimental data published in patent publication US20140294894A1 (priority 2007, published 2014).
Ends that are not written are not given here.

Legend:
tetanus toxin = tested on: tetanus toxin; design: species or system mice; conditions: mouse, in vivo
TT = tested on: TT; design: species or system mice; conditions: mouse, in vivo
splenocytes = format: cell-based, mice
Spleen cells = assay: Cytokine assay; format: cell-based, mice
[1] = Experiment 1, following restimulation

FCIGRL [AT1002]
protective antibody levels compared to immunization with TT alone (tetanus toxin): increased protective antibody levels
anti-tetanus IgG subclass titers (IgG1, IgG2a): shift toward a Th1 response (TT): No indication of a shift toward a Th1 response
anti-tetanus response (tetanus IgG titer) compared to tetanus toxoid alone (TT): significantly enhances the anti-tetanus response in a dose-dependent manner
anti-tetanus response (tetanus IgG titer), effect of higher dose (TT): does not increaser the anti-tetanus response
proliferation of spleen cells on restimulation with immunizing antigen (Stimulation Index) (splenocytes): induces the strongest cell proliferation response
IL-5 production compared to groups immunized with toxoid (TT) alone (Spleen cells; [1]): does not increase production
IL-10 production compared to groups immunized with toxoid (TT) alone (Spleen cells; [1]): does not increase production
IL-6 production by spleen cells compared to groups immunized with toxoid (TT) alone (Spleen cells; Experiment 1, restimulation with TT 0-100 μg/ml, FIG. 8A): does increase IL-6 production
IFN-γ production by spleen cells compared to groups immunized with toxoid (TT) alone (Spleen cells; Experiment 1, restimulation with TT 0-100 μg/ml, FIG. 8B): does not increase IFN-γ production
IL-6 production by spleen cells compared to groups immunized with toxoid (TT) alone (Spleen cells; Experiment 2, restimulation with TT 0-100 μg/ml, FIG. 14A): does increase IL-6 production
